In patent publication US20250250252A1, “PIPERIDINYLBENZONITRILE DERIVATIVES AS INHIBITORS OF GLUTAMINYL-PEPTIDE CYCLOTRANSFERASE AND GLUTAMINYL-PEPTIDE CYCLOTRANSFERASE LIKE PROTEIN” (Boehringer Ingelheim International GmbH, priority 2024, published 2025):

Tested on: SIRPα signalling induced by A549 cells
Assay: Assay B: SIRPα signalling assay using A549 cells
Format: cell-based
Conditions: Homo sapiens, read-out: Inhibition of SIRPα signalling induced by A549 cells: IC50
Description: Two cell types are independently used: the Raji cell line (lymphoblast-like human cell line derived from B lymphocytes from a Burkitt's lymphoma patient in 1963) and A549 cells (adenocarcinomic human alveolar basal epithelial cells).
Test compounds were dissolved in 100% DMSO and serially diluted into a white 384-well microtiter cell culture plate (PerkinElmer #60076780 in case of Raji assay; PDL-coated plates Greiner #781945 in case of A549 assay). 5000 Raji cells (ATCC #CC86) or 5000 A549 cells (ATCC #CCL-185) in Assay Complete Cell Plating reagent 30 (DiscoverX 93-0563R30B) were added per well. The assay plate was incubated for 48 h at 37° C., 95% humidity and 5% CO2. 15000 reporter cells (Jurkat PathHunter SIRPαV1, DiscoverX #93-1135C19) were added to each well, and the plate was incubated for 5 h at 37° C., 95% humidity and 5% CO2. Bioassay reagent 1 of the PathHunter Bioassay detection kit (DiscoverX 93-0001) was added to each well of the plate using a multichannel pipette followed by a 15 min incubation at room temperature. Afterwards bioassay reagent 2 was added followed by 60 min incubation at room temperature (incubation in the dark).
The analysis of the data was performed using the luminescence signal generated by betagalactosidase in the PathHunter reporter cell line. The luminescence measurement was done using a Pherastar Multi-Mode Reader. Dose-response curves & IC50 data were calculated with 4-parameter sigmoidal dose response formula.

SMILES	IC50 [nM]
Cc1ncc(-c2cc(C#N)c(N3CCC(F)(c4nncn4C)CC3)c(-c3ccc(F)nc3)c2)cn1 [Example 7]	37
Cc1ncc(-c2cc(C#N)c(N3CCC(F)(c4nncn4C)CC3)c(-c3ccc(F)nc3)c2)o1 [Example 2]	36
Cn1cnnc1C1(F)CCN(c2c(C#N)cc(-c3cccnc3)cc2-c2ccc(F)nc2)CC1 [Example 6]	33

Biological target: QPCTL (Homo sapiens (Human), UniProt Q9NXS2)
Sequence (Q9NXS2 whole entry): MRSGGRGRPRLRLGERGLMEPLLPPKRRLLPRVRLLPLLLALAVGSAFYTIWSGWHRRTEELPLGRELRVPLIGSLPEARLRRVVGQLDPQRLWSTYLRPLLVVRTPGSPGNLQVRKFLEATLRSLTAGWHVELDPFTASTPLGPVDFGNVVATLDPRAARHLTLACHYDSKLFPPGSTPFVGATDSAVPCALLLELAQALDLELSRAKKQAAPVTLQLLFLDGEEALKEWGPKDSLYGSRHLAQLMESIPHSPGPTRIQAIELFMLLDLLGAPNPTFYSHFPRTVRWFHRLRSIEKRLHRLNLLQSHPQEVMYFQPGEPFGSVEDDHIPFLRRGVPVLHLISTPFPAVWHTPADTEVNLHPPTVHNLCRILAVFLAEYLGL
Assay: Assay A: biochemical QPCTL activity assay (MALDI-TOF MS)
Conditions: read-out: Inhibition of QPCTL: IC50
Description: (§1) QPCT or QPCTL dependent conversion of N-terminal glutamine to pyroglutamate of CD47 was monitored via MALDI-TOF MS. Test compounds were dissolved in 100% DMSO and serially diluted into clear 1,536-well microtiter plates. Enzymatic reactions were set up in assay buffer containing 20 mM Tris pH 7.5, 0.1 mM TCEP, 0.01% BSA, and 0.001% Tween20. […] The plates were incubated for 10 min in a humidified incubator at 24° C. Subsequently, 2.5 μL of CD47 peptide substrate surrogate (^19[…]^33) was added to each well (final concentration: 10 μM for QPCTL/20 μM for QPCT). The plates were mixed for 30 sec at 1,000 rpm and subsequently incubated for 40 min in a humidified incubator at 24° C. […] The plates were sealed with an adhesive foil, mixed for 30 s at 1,000 rpm and stored at room temperature until preparation of the MALDI target plates. […] QPCT or QPCTL activity was monitored by calculating the ratio between product and internal standard signals followed by normalization to high (100% activity) and low (0% activity) controls. Determination of compound potencies was obtained by fitting the dose-response data to a four-parameter logistical equation.

SMILES	IC50 [nM]
Cc1ncc(-c2cc(C#N)c(N3CCC(F)(c4nncn4C)CC3)c(-c3ccc(F)nc3)c2)cn1 [Example 7]	3
Cc1ncc(-c2cc(C#N)c(N3CCC(F)(c4nncn4C)CC3)c(-c3ccc(F)nc3)c2)o1 [Example 2]	2
Cn1cnnc1C1(F)CCN(c2c(C#N)cc(-c3cccnc3)cc2-c2ccc(F)nc2)CC1 [Example 6]	3

Tested on: not listed separately
Assay: Assay C: Permeability in CACO-2 cells
Format: in vitro ADME
Conditions: human, Caco-2, pH 7.2; Assay C, permeability B-A/permeability A-B; read-out: Efflux Ratio
Description: Caco-2 cells (1-2×10^5 cells/1 cm^2 area) are seeded on filter inserts (Costar transwell polycarbonate or PET filters, 0.4 μm pore size) and cultured (DMEM) for 10 to 25 days. Compounds are dissolved in appropriate solvent (like DMSO, 1-20 mM stock solutions). […] The transport solution (TL) is applied to the apical or basolateral donor side for measuring A-B or B-A permeability (3 filter replicates), respectively. Samples are collected at the start and end of experiment from the donor and at various time intervals for up to 2 hours also from the receiver side for concentration measurement by HPLC-MS/MS or scintillation counting. Sampled receiver volumes are replaced with fresh receiver solution.
Efflux ratio (ER)=permeability B-A/permeability A-B

SMILES	efflux ratio
Cc1ncc(-c2cc(C#N)c(N3CCC(F)(c4nncn4C)CC3)c(-c3ccc(F)nc3)c2)cn1 [Example 7]	7.9
Cc1ncc(-c2cc(C#N)c(N3CCC(F)(c4nncn4C)CC3)c(-c3ccc(F)nc3)c2)o1 [Example 2]	3.3
Cn1cnnc1C1(F)CCN(c2c(C#N)cc(-c3cccnc3)cc2-c2ccc(F)nc2)CC1 [Example 6]	4.6

Same assay, conditions: human, pH 7.2; Assay C, CACO-2 cells

SMILES	Papp A→B [×10⁻⁶ cm/s]
Cc1ncc(-c2cc(C#N)c(N3CCC(F)(c4nncn4C)CC3)c(-c3ccc(F)nc3)c2)cn1 [Example 7]	4.8
Cc1ncc(-c2cc(C#N)c(N3CCC(F)(c4nncn4C)CC3)c(-c3ccc(F)nc3)c2)o1 [Example 2]	26
Cn1cnnc1C1(F)CCN(c2c(C#N)cc(-c3cccnc3)cc2-c2ccc(F)nc2)CC1 [Example 6]	19

Tested on: SIRPα signalling induced by Raji cells
Assay: Assay B: SIRPα signalling assay using Raji cells
Format: cell-based
Conditions: Homo sapiens, read-out: Inhibition of SIRPα signalling induced by Raji cells: IC50
Description: Bioassay reagent 1 of the PathHunter Bioassay detection kit (DiscoverX 93-0001) was added to each well of the plate using a multichannel pipette followed by a 15 min incubation at room temperature. Afterwards bioassay reagent 2 was added followed by 60 min incubation at room temperature (incubation in the dark).
The analysis of the data was performed using the luminescence signal generated by betagalactosidase in the PathHunter reporter cell line. The luminescence measurement was done using a Pherastar Multi-Mode Reader.

SMILES	IC50 [nM]
Cc1ncc(-c2cc(C#N)c(N3CCC(F)(c4nncn4C)CC3)c(-c3ccc(F)nc3)c2)cn1 [Example 7]	100
Cc1ncc(-c2cc(C#N)c(N3CCC(F)(c4nncn4C)CC3)c(-c3ccc(F)nc3)c2)o1 [Example 2]	180
Cn1cnnc1C1(F)CCN(c2c(C#N)cc(-c3cccnc3)cc2-c2ccc(F)nc2)CC1 [Example 6]	139

Tested on: CYP3A4 mRNA
Assay: Assay D: CYP induction screening assay in primary human hepatocytes
Format: in vitro ADME
Conditions: 48 h
Description: Cryopreserved plateable human hepatocytes (single donor, BioIVT) were thawed and plated in Collagen-I coated 96-well-plates at a cell density of 0.07 million cells per well.
After a 6 h attachment period, the seeding medium was replaced by serum-free William's medium E supplemented with Matrigel (0.25 mg/ml) and allowed to recover overnight. 24 h post-seeding, serum-free Williams E medium containing the test compound at a final concentration of 10 μM and a final DMSO content of 0.1% and 0.1% DMSO (solvents treated control), respectively, was added to predefined wells. Exposure solutions were renewed after 24 h.
After 48 h of treatment in total, the effect of the test compounds on CYP3A4 mRNA expression was assessed using the QuantiGene Plex Gene Expression Assay. Hepatocytes were lysed and total RNA was extracted using the QuantiGene Sample Processing Kit according to the instructions of the manufacturer.
mRNA quantification was conducted using a customized QuantiGene Plex Panel to analyse CYP3A4 and the housekeeper genes RPL32, EIF4E2 and GUSB according to the instructions of the manufacturer and measured on a Luminex™ instrument. Signal was reported as median fluorescence intensity (MFI), which is proportional to the number of target RNA molecules present in the sample.
For calculation of CYP3A4 mRNA induction, the signal for CYP3A4 was normalized against the geometric mean of the signal obtained for the housekeeper genes for hepatocytes exposed to test compounds in relation to solvent-treated samples according to the following equation:
n-fold induction=(MFI CYP3A4 (treated)/Xgeo MFI (RPL32,EIF4E2,GUSB))/(MFI CYP3A4 (solvent control)/Xgeo MFI (RPL32,EIF4E2,GUSB))

SMILES	n-fold induction of CYP3A4 at 10 μM [n-fold]
Cc1ncc(-c2cc(C#N)c(N3CCC(F)(c4nncn4C)CC3)c(-c3ccc(F)nc3)c2)cn1 [Example 7]	0.7
Cc1ncc(-c2cc(C#N)c(N3CCC(F)(c4nncn4C)CC3)c(-c3ccc(F)nc3)c2)o1 [Example 2]	1.6
Cn1cnnc1C1(F)CCN(c2c(C#N)cc(-c3cccnc3)cc2-c2ccc(F)nc2)CC1 [Example 6]	1.8

Tested on: murine hepatocytes
Assay: Assay E: Stability in murine hepatocytes
Format: in vitro ADME, mouse
Conditions: 1 μM
Description: The metabolic degradation of the test compound is assayed in a murine hepatocyte suspension.
Murine hepatocytes (typically cryopreserved) are incubated in an appropriate buffer system (e.g. Dulbecco's modified eagle medium plus 3.5 μg glucagon/500 mL, 2.5 mg insulin/500 mL and 3.75 mg/500 mL hydrocortison) containing 5% species serum.
Following a (typically) 30 min preincubation in an incubator (37° C., 10% CO2) 5 μl of test compound solution (80 μM; from 2 mM in DMSO stock solution diluted 1:25 with medium) are added into 395 μl hepatocyte suspension (cell density in the range 0.25-5 Mio cells/mL, typically 1 Mio cells/mL; final concentration of test compound 1 μM, final DMSO concentration 0.05%).
The cells are incubated for six hours (incubator, orbital shaker) and samples (2 μl) are taken at 0, 0.5, 1, 2, 4 and 6 hours. Samples are transferred into acetonitrile and pelleted by centrifugation (5 min). The supernatant is transferred to a new 96-deepwell plate, evaporated under nitrogen and resuspended.
CLint is calculated as follows CL_[…]=Dose/AUC=(C0/CD)/(AUD+clast/k)×1000/60. C0: initial concentration in the incubation [μM], CD: cell density of vital cells [10e6cells/mL], AUD: area under the data [μM×h], clast: concentration of last data point [μM], k: slope of the regression line for parent decline [h−1].
The calculated in vitro hepatic intrinsic clearance can be scaled up to the intrinsic in vivo hepatic Clearance and used to predict hepatic in vivo blood clearance (CL) by the use of a liver model (well stirred model).
CL_[…]_INVIVO[ml/min/kg]=(CL_[…][μL/min/10e6cells]×hepatocellularity[10e6cells/g liver]×liver factor[g/kg bodyweight])/1000
CL[ml/min/kg]=CL_[…]_INVIVO[ml/min/kg]×hepatic blood flow[ml/min/kg]/(CL_[…]_INVIVO[ml/min/kg]+hepatic blood flow[ml/min/kg])
Hepatocellularity,mouse:120×10e6cells/g liver
Liver factor,mouse:55 g/kg bodyweight
Blood flow,mouse:90 ml/(min×kg)

SMILES	Mouse Hepatocyte Stability QH [%]
Cc1ncc(-c2cc(C#N)c(N3CCC(F)(c4nncn4C)CC3)c(-c3ccc(F)nc3)c2)cn1 [Example 7]	48
Cc1ncc(-c2cc(C#N)c(N3CCC(F)(c4nncn4C)CC3)c(-c3ccc(F)nc3)c2)o1 [Example 2]	15
Cn1cnnc1C1(F)CCN(c2c(C#N)cc(-c3cccnc3)cc2-c2ccc(F)nc2)CC1 [Example 6]	35

Biological target: QPCT (Homo sapiens (Human), UniProt Q16769)
Sequence (Q16769 29-361): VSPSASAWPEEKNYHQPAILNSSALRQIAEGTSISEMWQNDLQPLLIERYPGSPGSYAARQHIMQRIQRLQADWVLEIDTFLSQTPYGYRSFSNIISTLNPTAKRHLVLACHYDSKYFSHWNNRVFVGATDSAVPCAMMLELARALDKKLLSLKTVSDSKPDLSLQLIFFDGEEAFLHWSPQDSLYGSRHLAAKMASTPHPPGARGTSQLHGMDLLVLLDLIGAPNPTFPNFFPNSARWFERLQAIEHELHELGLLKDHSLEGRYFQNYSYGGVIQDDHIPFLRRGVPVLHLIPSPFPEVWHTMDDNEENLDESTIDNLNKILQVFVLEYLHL
Assay: Assay A: biochemical QPCT activity assay (MALDI-TOF MS)
Conditions: read-out: Inhibition of QPCT: IC50
Description: as §1

SMILES	IC50 [nM]
Cc1ncc(-c2cc(C#N)c(N3CCC(F)(c4nncn4C)CC3)c(-c3ccc(F)nc3)c2)cn1 [Example 7]	4
Cc1ncc(-c2cc(C#N)c(N3CCC(F)(c4nncn4C)CC3)c(-c3ccc(F)nc3)c2)o1 [Example 2]	4
Cn1cnnc1C1(F)CCN(c2c(C#N)cc(-c3cccnc3)cc2-c2ccc(F)nc2)CC1 [Example 6]	4
